The values below come from ChEMBL document CHEMBL1268939, “Synthesis and evaluation of bivalent, peptidomimetic antagonists of the αvβ3 integrins” (Bioorg Med Chem Lett, 2010).

Usually IC50 stands for the concentration that gives 50% inhibition. Read a high IC50 as weaker potency.

Sequence of Integrin alpha-V/beta-3 (P05106 27-788 limits assumed): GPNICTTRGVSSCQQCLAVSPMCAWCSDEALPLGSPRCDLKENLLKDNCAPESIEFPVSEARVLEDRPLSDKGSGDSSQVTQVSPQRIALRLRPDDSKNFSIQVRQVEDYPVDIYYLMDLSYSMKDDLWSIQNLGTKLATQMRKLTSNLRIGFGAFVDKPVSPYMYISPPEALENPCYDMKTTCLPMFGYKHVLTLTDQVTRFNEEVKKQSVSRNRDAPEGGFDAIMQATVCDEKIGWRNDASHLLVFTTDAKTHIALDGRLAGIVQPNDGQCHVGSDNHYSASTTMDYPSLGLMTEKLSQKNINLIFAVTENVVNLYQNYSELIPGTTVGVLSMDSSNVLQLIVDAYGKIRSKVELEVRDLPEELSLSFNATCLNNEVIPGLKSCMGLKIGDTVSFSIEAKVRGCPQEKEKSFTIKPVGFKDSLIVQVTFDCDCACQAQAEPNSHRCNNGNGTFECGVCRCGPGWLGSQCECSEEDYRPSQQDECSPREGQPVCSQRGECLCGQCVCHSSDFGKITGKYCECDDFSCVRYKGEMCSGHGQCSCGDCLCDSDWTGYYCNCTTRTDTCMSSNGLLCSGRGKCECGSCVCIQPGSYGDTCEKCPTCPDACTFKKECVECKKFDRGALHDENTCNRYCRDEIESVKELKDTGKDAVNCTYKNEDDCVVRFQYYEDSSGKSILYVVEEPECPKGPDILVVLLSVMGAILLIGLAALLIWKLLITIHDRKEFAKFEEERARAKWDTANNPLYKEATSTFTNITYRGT
Sequence of Integrin alpha-V/beta-3 (P06756 31-889 limits assumed): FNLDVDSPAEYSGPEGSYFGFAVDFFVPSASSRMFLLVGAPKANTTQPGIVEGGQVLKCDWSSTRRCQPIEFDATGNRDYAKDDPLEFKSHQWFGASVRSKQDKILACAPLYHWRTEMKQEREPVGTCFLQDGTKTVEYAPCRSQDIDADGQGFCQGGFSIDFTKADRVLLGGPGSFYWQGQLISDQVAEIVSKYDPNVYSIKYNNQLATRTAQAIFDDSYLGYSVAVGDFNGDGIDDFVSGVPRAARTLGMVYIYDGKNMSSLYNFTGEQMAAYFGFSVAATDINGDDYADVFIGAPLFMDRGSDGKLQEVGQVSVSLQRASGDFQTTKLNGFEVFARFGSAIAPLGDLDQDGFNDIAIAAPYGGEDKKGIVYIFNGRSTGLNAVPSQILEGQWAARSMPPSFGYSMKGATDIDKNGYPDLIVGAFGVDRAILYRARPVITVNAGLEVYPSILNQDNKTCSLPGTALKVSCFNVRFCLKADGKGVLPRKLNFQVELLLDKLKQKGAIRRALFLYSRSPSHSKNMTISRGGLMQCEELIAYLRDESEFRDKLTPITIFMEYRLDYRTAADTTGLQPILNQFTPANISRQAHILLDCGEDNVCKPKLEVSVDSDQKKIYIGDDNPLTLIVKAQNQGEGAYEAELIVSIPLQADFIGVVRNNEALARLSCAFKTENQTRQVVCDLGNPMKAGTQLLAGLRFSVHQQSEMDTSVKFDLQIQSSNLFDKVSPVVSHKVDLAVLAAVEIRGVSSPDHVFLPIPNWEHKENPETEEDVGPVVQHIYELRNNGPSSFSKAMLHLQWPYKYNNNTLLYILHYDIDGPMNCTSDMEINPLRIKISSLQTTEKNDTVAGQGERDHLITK
Sequence of Integrin alpha-V/beta-3 (P06756 891-1048 limits assumed): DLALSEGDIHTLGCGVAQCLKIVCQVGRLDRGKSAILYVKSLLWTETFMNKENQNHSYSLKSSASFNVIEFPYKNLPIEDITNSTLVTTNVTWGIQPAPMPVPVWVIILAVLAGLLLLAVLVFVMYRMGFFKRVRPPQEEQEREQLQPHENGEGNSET

The test addresses Integrin alpha-V/beta-3 (Homo sapiens, UniProt P05106+P06756). Nature of the test: Inhibition of biotinylated vitronectin binding to human alphaVbeta3 integrin after 3 hrs by ELISA. Type of test: protein-complex assay. (ELISA stands for enzyme-linked immunosorbent assay.)
Turning to `CC(C)(CNC(=O)OCCOCCOCCOCCOCCOCCOCCOCCOC(=O)NCC(C)(C)COC(=O)NCCS(=O)(=O)N[C@@H](CNC(=O)c1ccc(OCCN=C2NCCCN2)cc1)C(=O)O)COC(=O)NCCS(=O)(=O)N[C@@H](CNC(=O)c1ccc(OCCN=C2NCCCN2)cc1)C(=O)O`, the half-maximal inhibitory concentration (IC50) is 0.32 nM. In the case of `NCCS(=O)(=O)N[C@@H](CNC(=O)c1ccc(OCCNC2=NCCCN2)cc1)C(=O)O` it was 22.3 nM; in that of `CC(C)(CN)COC(=O)NCCS(=O)(=O)N[C@@H](CNC(=O)c1ccc(OCCNC2=NCCCN2)cc1)C(=O)O`, 2.07 nM.
